Patent US5459256A, “Lipophilic, aminohydrolase-activated prodrugs” (priority 1991, dated 1995)
Entries after “also recorded” stand apart in the source; their conditions may differ. Where two headings read alike, the source gives them in different places.

Columns and labels:
[1] = Octanol-water partition coefficient, microscale shake-flask
Description: Measurement of Octanol-Water Partition Coefficients.
n-Octanol-water partition coefficients (P) were determined by a microscale shake-flask procedure, (Ford, H. et al Abstracts of Papers, 200th National Meeting of the American Chemical Society, Washington, D.C.; American Chemical Society: Washington, D.C., 1990; CARB 13) which was modification of an earlier method (Nahum, A. & Horvath, C. J. Chromatogr. 1980, 192, 315). A 20 μL aliquot of a 0.5 mg/mL DMSO solution of the dideoxynucleoside was dissolved in 1.0 mL of octanol-saturated, pH 7.0, 0.01M potassium phosphate buffer. This was mixed thoroughly with 1.0 ml of buffer-saturated n-octanol in a 2-mL Mixxor apparatus at 24°-26° C. and then allowed to stand for 15 min. The phases were separated, centrifuged at 600×g for 5 min, and the relative concentration of sample in each phase determined by HPLC analysis of a 50 μl aliquot. The partition coefficient was calculated by dividing the absolute area of the appropriate integrated peak from the octanol phase by that of the buffer phase (Table I).
Octanol/pH 7.0 buffer partition coefficients were determined using a newly developed microscale method. […] The addition of a methyl group normally increases the log P value of a compound by about 0.5.

[2] = test system: HIV-1/IIIB (CD4^+ ATH8 cells); experiment: HIV cytopathic effect inhibition assay in ATH8 cells (% protection); assay type: cell-based; details: for anti-HIV activity (in words): no additive
Description: (§1) HIV Cytopathic Effect Inhibition Assay.
(§2) The HIV cytopathic effect inhibition assay was performed as previously described. (Mitsuya, H. & Broder, S. Proc. Nat. Acad. Sci. USA 1986, 83, 1911) Briefly, 200,000 target CD4^+ ATH8 cells were exposed to cell-free HIV-1/IIIB at a dose of 43 (or 1087 for compound 1g) TCID50 (50% tissue culture infectious dose) for 1 h, resuspended in 2 ml of fresh culture media containing interleukin 2, and cultured at 37° C. with or without test compounds in 5% CO2 -containing humidified air. On day 8 in culture, the viable cells were counted by using the dye exclusion method. All compounds, including inactives, were evaluated a minimum of two times in separate experiments. Data reported in Table II are from representative tests. The % protection against the virus was determined by the following formula: 100 times [(the number of viable cells exposed to HIV-1 and cultured in the presence of the compound minus the number of viable cells exposed to HIV-1 and cultured in the absence of compound) divided by (the number of viable cells cultured alone minus the number of viable cells exposed to HIV-1 and cultured in the absence of the compound)]. The % toxicity of a compound on the target cells was determined by the following formula: 100 times [1 minus (the number of total viable cells cultured in the presence of the compound divided by the number of total viable cells cultured alone)]. Calculated percentages equal to or less than zero are expressed as 0%.
^a ATH8 cells were exposed to HIV1/IIIB per cell for 1 hr and
cultured in the presence of various concentrations of each compound. On
day 8, the total viable cells were counted. Orders of numbers in the
column for concentrations correspond to the orders of numbers in other

[3] = Toxicity on ATH8 target cells (% toxicity, dye exclusion); assay type: cell-based; details: human, ath8 cells
Description: as §1
as §2, with “(Mitsuya, H. & Broder, S. Proc. Nat. Acad. Sci. USA 1986, 83, 1911) Briefly, 200,000 target CD4^+ ATH8 cells were exposed to cell-free HIV-1/IIIB at a dose of 43 (or 1087 for compound 1g) TCID50 (50% tissue culture infectious dose) for 1 h, resuspended in 2 ml of fresh culture media containing interleukin 2, and cultured at 37° C. with or without test compounds in 5% CO2 -containing humidified air.” left out

CD4^+ ATH8 cells = experiment: as above; assay type: cell-based; details: for % Toxicity: human
Description: as §1
as §2, with “(Mitsuya, H. & Broder, S. Proc. Nat. Acad. Sci. USA 1986, 83, 1911) Briefly, 200,000 target CD4^+ ATH8 cells were exposed to cell-free HIV-1/IIIB at a dose of 43 (or 1087 for compound 1g) TCID50 (50% tissue culture infectious dose) for 1 h, resuspended in 2 ml of fresh culture media containing interleukin 2, and cultured at 37° C. with or without test compounds in 5% CO2 -containing humidified air.” left out

[4] = molecular target: T1, adenosine deaminase (adenosine aminohydrolase, EC 3.5.4.4) (Bos taurus, UniProt P56658); experiment: Enzymatic deamination by adenosine deaminase (HPLC)
T1 sequence (P56658 1-363): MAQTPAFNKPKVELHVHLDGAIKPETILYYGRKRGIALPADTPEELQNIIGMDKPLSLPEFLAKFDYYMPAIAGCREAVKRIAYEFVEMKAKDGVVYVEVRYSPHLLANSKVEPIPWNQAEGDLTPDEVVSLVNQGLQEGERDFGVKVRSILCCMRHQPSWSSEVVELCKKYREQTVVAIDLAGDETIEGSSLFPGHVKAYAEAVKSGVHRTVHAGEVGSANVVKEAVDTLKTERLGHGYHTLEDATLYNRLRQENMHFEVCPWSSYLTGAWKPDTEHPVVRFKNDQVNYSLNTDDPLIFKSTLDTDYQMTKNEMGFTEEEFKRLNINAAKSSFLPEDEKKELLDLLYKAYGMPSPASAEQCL
Description: FIG. 1. Deamination of dideoxyadenosine analogues by adenosine deaminase. Hydrolysis kinetics and 2'-F-dd-ara-I formation during the incubation of 50 μM N^6 -CH3 -2'-F-dd-ara-A (1f) with 0.7 units/mL of adenosine deaminase at 37° C. A unit of adenosine deaminase is the amount of enzyme which hydrolyzes a standard substrate (e.g., adenosine) at the rate of 1.0 μmole/min at 25° C. and pH 7.5. […] Insert: Adenosine deaminase hydrolysis kinetics for 50 μM ddA and 2'-F-dd-ara-A. The hydrolysis curve for ddA has been extrapolated from kinetics obtained with 0.07 units/mL of adenosine deaminase under identical conditions.
A 50 μl aliquot of a 10 mg/ml suspension of adenosine deaminase (adenosine aminohydrolase, EC 3.5.4.4) from calf intestinal mucosa was centrifuged at 600×g for 3 min. The residue remaining after removal of the (NH4)2 SO4 supernatant was dissolved in 0.5 ml pH 7.4 tris(hydroxymethyl)-aminomethane (Tris) buffer to give an enzyme solution of 1 mg/ml (274 units/ml). […] A pH 7.4 buffer was prepared by adjusting 0.01M Tris to pH 7.4 with 0.5N HCl, The 1.0 HCl , HPLC-grade acetonitrile, monobasic potassium phosphate, sodium hydroxide and ultrapure Tris were all commercially available and were used without further purification.
Enzymatic Deamination of Adenosine Analogues. […] A 50 μL aliquot of substrate solution was diluted with 0.95 ml 0.01M Tris buffer in a 1.5-mL Eppendorf tube and equilibrated at 37° C. in a Dubnoff metabolic shaking incubator. Reaction was initiated by addition of 2.5 μL of adenosine deaminase solution (0.7 unit). At specified time intervals, a 50 μL aliquot of the reaction mixture was withdrawn and quenched by mixing with 0.45 mL cold 2 μM 2'-deoxycoformycin. This diluted sample was ultrafiltered to remove enzyme in a Centrifree Micropartition unit by centrifugation at 600×g at 4° C. in a high speed refrigerated centrifuge. The decrease in substrate concentration was monitored by HPLC analysis of the resultant ultrafiltrate (see below). The ability of 2'-deoxycoformycin to inhibit deamination under the above conditions was evaluated by adding 2 μL of 1.0 mM inhibitor to diluted substrate solutions at the time of equilibration. Reaction, sampling and analysis were carried out as above. […] Initial hydrolysis rates for each substrate concentration were measured through linear least-squares curve fitting of the concentration versus time data for reaction of the first 10% of substrate. KM and vmax values for each substrate were then determined from a graphical lineweaver-Burke plot of these initial rates (FIG. 1).
HPLC Analysis of Dideoxypurine Nucleosides.
Concentrations of dideoxynucleosides were measured by the HPLC analysis of 100 μL aliquots of ultrafiltered samples. A 4.6×250 mm 5-μm Ultrasphere-ODS column, protected by a Waters guard column packed with 37-50 μm Vydac 201SC, was eluted with 10-20% CH3 CN in 0.01M pH 7.0 phosphate buffer at a flow rate of 1.0 mL/min. Dideoxynucleosides and deamination products were detected at the appropriate wavelength of maximum absorption with a Gilson 116 variable wavelength detector. Peak identity was determined from coincidence of retention times with standards and by comparison of on-the-fly UV spectra obtained with a Perkin-Elmer LC-235 diode array detector. Peak areas and peak heights were measured simultaneously on a Spectra-Physics SP4200 computing integrator.

[5] = octanol/ph 7.0 buffer, pH 7, Log P
[6] = without dCF, read-out: % Toxicity
[7] = octanol/ph 7.0 buffer, pH 7, octanol/pH 7.0 buffer partition coefficient (P)
[8] = additive alone, no test compound

For Cc1cn([C@H]2C[C@H](N=[N+]=[N-])[C@@H](CO)O2)c(=O)[nH]c1=O [AZT, reference compound], the “partitioning (in words)” value ([1]; octanol and pH 7.0 buffer) was “partitions into octanol and pH 7.0 buffer almost equally” and the “Log P” value ([1]; octanol/pH 7.0 buffer, 24°-26° C., Table I mean ± standard deviation of three determinations) was 0.05 ± 0.01.

For OC[C@@H]1C[C@H](F)[C@H](n2cnc3cncnc32)O1 [Compound 1c, 9-(2',3'-dideoxy-2'-fluoro-β-D-arabinofuranosyl)-9-H-purine], the “anti-HIV activity (in words)” value ([2]; ATH8 cells) was “abolished activity” and the logD [1, 5] was -0.4 ± 0.01.

In the case of Cc1nc(N)c2ncn([C@@H]3O[C@H](CO)C[C@@H]3F)c2n1 [Compound 1d, 2-methyl-9-(2', 3'-dideoxy-2'-fluoro-β-D-arabinofuranosyl)adenine], the “anti-HIV activity (in words)” value ([2]; ATH8 cells) is reported as “the methyl group in the 2-position abolished activity” and the logD ([1]; octanol/ph 7.0 buffer, pH 7) is reported as 0.12 ± 0.02.

In the case of CNc1nc(C)nc2c1ncn2[C@@H]1O[C@H](CO)C[C@@H]1F [Compound 1e, 2,N^6 -Dimethyl-9-(2',3'-dideoxy-2'-fluoro-β-D-arabinofuranosyl)adenine], the “anti-HIV activity (in words)” value ([2]; ATH8 cells) is reported as “the methyl group in the 2-position abolished activity” and the logD [1, 5] is reported as 0.64 ± 0.01.

For O=C(Nc1ncnc2c1ncn2[C@@H]1O[C@H](CO)C[C@@H]1F)c1ccccc1 [Compound 1g, N^6-benzoyl-9-(2',3'-dideoxy-2'-fluoro-β-D-arabinofuranosyl)adenine], the “anti-HIV activity (in words)” value ([2]; ATH8 cells) was “preservation of modest activity”, the cytotoxicity at 192 h, 5 µM ([3]; 5 μM, without dCF) was 2% and the cytotoxicity at 192 h, 20 µM [3, 6] was 0%. For the same compound, the cytotoxicity at 192 h, 50 µM ([3]; 50 μM, without dCF, read-out: % Toxicity) was 0%, the cytotoxicity at 192 h, 100 µM ([3]; 100 μM, without dCF, read-out: % Toxicity) was 8% and the “Log P” value ([1]; octanol/ph 7.0 buffer, pH 7) was 0.70 ± 0.02. For the same compound, the logD [1, 5] was 0.73 and the logD [1, 7] was 0.732.

Compound Cc1nc2c(N)ncnc2n1[C@@H]1O[C@H](CO)C[C@@H]1F [Compound 1h, 8-Methyl-9-(2',3'-dideoxy-2'-fluoro-β-D-arabinofuranosyl)adenine] has a logD [1, 5] of 0.1 ± 0.01.

In the case of OC[C@@H]1C[C@H](F)[C@H](n2cnc3c(Cl)ncnc32)O1 [Compound 1i, 6-Chloro-9-(2',3'-dideoxy-2-fluoro-β-D-arabinofuranosyl)purine], the “protection to HIV-infected ATH8 cells” value ([2]; ATH8 cells, concentration not given) is reported as “ca. 50%”, the “anti-HIV activity in the presence of dCF (in words)” value ([2]; ATH8 cells, dCF added) is reported as “protection was either abolished or greatly decreased; also recorded: can have activity abolished” and the “anti-HIV activity (in words)” value ([2]; ATH8 cells) is reported as “reproducible, albeit unspectacular, activity; also recorded: only moderate anti-HIV activity”. The “% Toxicity” value (CD4^+ ATH8 cells; 11520 min) was 14%, the “% Toxicity” value (CD4^+ ATH8 cells; ath8 cells, 192 h, 50 µM) was 56% and the “% Toxicity” value (CD4^+ ATH8 cells; ath8 cells, 192 h, 100 µM) was 72%. For the same compound, the cytotoxicity at 192 h, 50 µM ([3]; % Toxicity) was 46%, the cytotoxicity at 192 h, 100 µM ([3]; % Toxicity) was 52% and the “Measured Relative Rate” value ([4]; 50 μM substrate, pH 7.4 and 37° C., ddA = 100) was 0.06. For the same compound, the vmax ([4]; pH 7.4 and 37° C.) was 2.6 × 10^-2 μmol/min/U, the “hydrolysis by ADA, times slower than ddA” value ([4]; vs ddA, 50 μM substrate) was “ca. 1700 times slower” and the logD ([1]; octanol/ph 7.0 buffer, pH 7) was 0.32 ± 0.02.

In the case of Nc1c2ncn([C@@H]3O[C@H](CO)C[C@@H]3F)c2nc[n+]1[O-] [Compound 21, 9-(2',3'-Dideoxy-2'-fluoro-β-D-arabinofuranosyl)adenine-1-oxide], the “anti-HIV activity (in words)” value ([2]; ATH8 cells) is reported as “abolished activity”, the “deamination by ADA (in words)” value ([4]; 0.7 U/mL ADA, 37° C.) is reported as “no deamination was observed” and the logD ([1]; octanol/ph 7.0 buffer, pH 7) is reported as -1.38. The logD [1, 7] was -1.4.

For OC[C@H]1O[C@@H](n2cnc3c2NC=NC[C@H]3O)C[C@@H]1O [dCF, 2'-Deoxycoformycin, reference compound], the “protection by additive alone (in words)” value [2, 8] was “did not produce significant toxicity or protection of ATH8 cells against the effects of HIV-1” and the “toxicity / viability effect of additive alone (in words)” value (CD4^+ ATH8 cells; [8]) was “did not produce significant toxicity”.

With O=c1[nH]cnc2c1ncn2[C@H]1CC[C@@H](CO)O1 [ddI, dideoxyinosine, reference compound] the inhibition at 20 µM ([2]; Human immunodeficiency virus 1, IIIB, ATH-8, 192 h, 20 μM, without dCF) was 100% and the cytotoxicity at 192 h, 20 µM [3, 6] was 0%.
